The values that follow come from ChEMBL document CHEMBL1130147, “Dihydrobenzofuran analogues of hallucinogens. 4. Mescaline derivatives” (J Med Chem, 1997).

Data set [1] is filed under the species Rattus norvegicus. Kind of data set: Ability to inhibit accumulation [3H]DA in rat whole brain synaptosomes. The format is functional.
Data set [2] deals with T1, 5-hydroxytryptamine receptor 2A (Homo sapiens, UniProt P28223). Kind of data set: Agonist activity at cloned human 5-hydroxytryptamine 2A receptor using [125I]DOI radioligand.
T1 sequence (P28223 whole entry): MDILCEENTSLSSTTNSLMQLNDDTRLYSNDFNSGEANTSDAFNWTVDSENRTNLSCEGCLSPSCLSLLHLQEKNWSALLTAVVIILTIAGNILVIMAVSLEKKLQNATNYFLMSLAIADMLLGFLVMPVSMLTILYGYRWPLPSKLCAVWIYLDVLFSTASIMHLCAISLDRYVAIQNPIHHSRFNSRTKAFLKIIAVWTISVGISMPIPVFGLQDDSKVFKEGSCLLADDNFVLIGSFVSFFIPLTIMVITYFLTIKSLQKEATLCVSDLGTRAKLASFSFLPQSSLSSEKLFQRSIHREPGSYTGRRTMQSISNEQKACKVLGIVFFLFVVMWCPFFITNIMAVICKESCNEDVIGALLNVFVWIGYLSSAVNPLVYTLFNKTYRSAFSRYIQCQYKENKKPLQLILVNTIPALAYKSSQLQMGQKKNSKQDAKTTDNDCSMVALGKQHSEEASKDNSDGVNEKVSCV
The species entered for data set [3] is Rattus norvegicus. Kind of data set: Ability to inhibit accumulation [3H]5-HT in rat whole brain synaptosomes. The format is functional.
The species named for data set [4] is Rattus norvegicus. The experiment in a line: Effective dose showing 50% Drug Discrimination in LSD trained rats (number of animals tested = 8-12). It counts as functional.
Data set [5] concerns the target T2, 5-hydroxytryptamine receptor 2A (Rattus norvegicus, UniProt P14842). The experiment in a line: Effect on phosphoinositide hydrolysis in NIH 3T3 fibroblast 5-hydroxytryptamine 2A receptor. It counts as functional.
The target in data set [6] is T3, 5-hydroxytryptamine receptor 2B (Homo sapiens, UniProt P41595). Kind of data set: Agonist activity at cloned human 5-hydroxytryptamine 2B receptor using [3H]5-HT radioligand. The format is binding.
T3 sequence (P41595 whole entry): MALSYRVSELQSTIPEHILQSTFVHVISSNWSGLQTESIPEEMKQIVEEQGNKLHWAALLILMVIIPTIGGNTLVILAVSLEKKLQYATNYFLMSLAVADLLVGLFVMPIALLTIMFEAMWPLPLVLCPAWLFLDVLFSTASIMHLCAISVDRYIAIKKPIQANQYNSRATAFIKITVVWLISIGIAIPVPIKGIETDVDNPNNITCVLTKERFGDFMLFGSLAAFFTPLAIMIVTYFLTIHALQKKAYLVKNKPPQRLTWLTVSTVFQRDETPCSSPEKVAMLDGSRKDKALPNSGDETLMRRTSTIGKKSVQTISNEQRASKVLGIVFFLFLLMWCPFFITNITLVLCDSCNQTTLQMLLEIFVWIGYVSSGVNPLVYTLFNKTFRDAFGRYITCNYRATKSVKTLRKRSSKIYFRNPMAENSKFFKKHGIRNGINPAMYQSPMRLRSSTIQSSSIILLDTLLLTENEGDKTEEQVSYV
Data set [7] has as its target T4, 5-hydroxytryptamine receptor 2C (Rattus norvegicus, UniProt P08909).
T4 sequence (P08909 whole entry): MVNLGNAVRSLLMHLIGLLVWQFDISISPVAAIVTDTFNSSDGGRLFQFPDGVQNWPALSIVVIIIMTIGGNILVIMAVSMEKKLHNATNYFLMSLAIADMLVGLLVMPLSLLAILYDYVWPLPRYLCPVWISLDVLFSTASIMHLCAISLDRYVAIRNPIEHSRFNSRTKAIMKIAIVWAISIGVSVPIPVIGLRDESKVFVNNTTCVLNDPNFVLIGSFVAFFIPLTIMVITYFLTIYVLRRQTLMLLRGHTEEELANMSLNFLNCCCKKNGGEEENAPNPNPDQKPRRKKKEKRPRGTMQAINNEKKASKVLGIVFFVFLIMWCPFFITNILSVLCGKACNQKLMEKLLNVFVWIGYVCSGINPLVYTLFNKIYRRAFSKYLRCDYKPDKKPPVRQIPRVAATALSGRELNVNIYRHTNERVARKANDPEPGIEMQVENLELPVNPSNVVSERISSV
The experiment in a line: Effect on phosphoinositide hydrolysis in NIH 3T3 fibroblast 5-hydroxytryptamine 2C receptor. It counts as functional.

Data set [8] concerns the target T5, 5-hydroxytryptamine receptor 1A (Rattus norvegicus, UniProt P19327).
T5 sequence (P19327 whole entry): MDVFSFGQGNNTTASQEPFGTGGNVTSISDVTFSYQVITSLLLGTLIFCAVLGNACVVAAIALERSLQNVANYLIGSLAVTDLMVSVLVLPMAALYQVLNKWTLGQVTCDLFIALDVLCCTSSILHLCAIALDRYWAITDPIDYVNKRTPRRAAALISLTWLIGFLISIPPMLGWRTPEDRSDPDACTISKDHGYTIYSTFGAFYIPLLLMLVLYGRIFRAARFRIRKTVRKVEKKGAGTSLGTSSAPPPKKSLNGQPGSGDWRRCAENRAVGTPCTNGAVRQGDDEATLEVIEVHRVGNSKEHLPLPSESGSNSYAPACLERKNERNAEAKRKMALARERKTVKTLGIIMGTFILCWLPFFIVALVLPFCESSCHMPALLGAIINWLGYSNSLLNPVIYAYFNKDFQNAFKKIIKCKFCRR
Kind of data set: Ability to displace [3H]-8-OH-DPAT from rat hippocampal homogenate 5-hydroxytryptamine 1A receptor. It counts as tissue-based, Hippocampus.

The target in data set [9] is T2, 5-hydroxytryptamine receptor 2A. The experiment in a line: Ability to displace [3H]ketanserin from rat cortical homogenate 5-hydroxytryptamine 2A receptor.
For data set [10], the target named is T6, 5-hydroxytryptamine receptor 2C (Homo sapiens, UniProt P28335).
T6 sequence (P28335 whole entry): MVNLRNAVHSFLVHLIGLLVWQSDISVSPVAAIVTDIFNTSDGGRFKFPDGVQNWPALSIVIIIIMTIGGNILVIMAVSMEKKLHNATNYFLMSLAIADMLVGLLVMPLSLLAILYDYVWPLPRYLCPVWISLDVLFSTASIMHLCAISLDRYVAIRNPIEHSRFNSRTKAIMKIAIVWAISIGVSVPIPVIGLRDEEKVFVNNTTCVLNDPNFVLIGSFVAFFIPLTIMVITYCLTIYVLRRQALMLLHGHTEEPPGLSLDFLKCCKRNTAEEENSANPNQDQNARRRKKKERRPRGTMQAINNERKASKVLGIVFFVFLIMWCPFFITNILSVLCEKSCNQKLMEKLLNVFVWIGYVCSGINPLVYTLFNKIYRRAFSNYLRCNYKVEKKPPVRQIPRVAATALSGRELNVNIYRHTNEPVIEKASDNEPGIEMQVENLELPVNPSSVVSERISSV
Kind of data set: Agonist activity at cloned human 5-hydroxytryptamine 2C receptor using [125I]DOI radioligand. The format is binding.

For data set [11], the target named is T2, 5-hydroxytryptamine receptor 2A. Kind of data set: Effect on phosphoinositide hydrolysis in NIH 3T3 fibroblast expressing 5-hydroxytryptamine 2A receptor. The format is functional.
Data set [12] concerns the target T6, 5-hydroxytryptamine receptor 2C. The experiment in a line: Antagonist activity at cloned human 5-hydroxytryptamine 2C receptor using [3H]mesulergine radioligand.
Data set [13] deals with T3, 5-hydroxytryptamine receptor 2B. The experiment in a line: Antagonist activity at cloned human 5-hydroxytryptamine 2B receptor using [3H]rauwolscine radioligand.
The species entered for data set [14] is Rattus norvegicus. Kind of data set: Effective dose showing 29% Drug Discrimination in LSD trained rats (number of animals tested = 8-12). The format is functional.
Data set [15] can be described thus: Partition coefficient (logP). The format is physicochemical. To be noted: octanol/water.
Data set [16] has as its target T3, 5-hydroxytryptamine receptor 2B. Kind of data set: Antagonist activity at cloned human 5-hydroxytryptamine 2B receptor using [3H]- rauwolscine radioligand.
Data set [17] addresses T1, 5-hydroxytryptamine receptor 2A. The experiment in a line: Antagonist activity at cloned human 5-hydroxytryptamine 2A receptor using [3H]-Ketanserin radioligand.

T2 sequence (P14842 whole entry): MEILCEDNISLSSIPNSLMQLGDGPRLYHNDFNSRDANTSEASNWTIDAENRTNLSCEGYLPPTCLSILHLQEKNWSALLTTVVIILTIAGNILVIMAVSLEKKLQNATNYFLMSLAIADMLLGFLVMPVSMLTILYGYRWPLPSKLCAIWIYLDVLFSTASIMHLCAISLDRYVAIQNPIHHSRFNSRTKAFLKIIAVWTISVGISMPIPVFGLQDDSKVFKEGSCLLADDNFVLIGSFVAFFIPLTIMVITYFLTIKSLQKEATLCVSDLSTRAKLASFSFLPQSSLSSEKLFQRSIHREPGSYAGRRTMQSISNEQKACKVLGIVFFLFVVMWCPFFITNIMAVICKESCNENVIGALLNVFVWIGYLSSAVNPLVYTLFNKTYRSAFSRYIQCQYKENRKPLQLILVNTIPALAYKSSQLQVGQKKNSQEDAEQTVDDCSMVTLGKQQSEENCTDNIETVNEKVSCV

Consider `CCOc1c(OC)cc(CCN)cc1OC`, for which the IC50 in the data set listed under Rattus norvegicus [1] and in the data set filed under Rattus norvegicus [3] was more than 10000 nM in each case. Further, the Ki (in general, the dissociation constant of the complex between target and ligand, obtained from inhibition or displacement) in [2] came out at 216 nM; in [6] it was 555 nM; in data set [8] it was 6900 nM; in [9], 2100 nM; in data set [10], 177 nM. The median effective dose (ED50) (commonly the midpoint of the dose-response relation) in the data set filed under Rattus norvegicus [4] stood at 16.2 µmol/kg. Also, the values for the EC50 in data set [5] and in data set [7] were 4000 nM and 2000 nM, respectively.
As for `COc1cc(CCN)c2c(c1OC)OCC2`, the half-inhibitory concentration (IC50) in the data set filed under Rattus norvegicus [1] and in the data set listed under Rattus norvegicus [3] was more than 10000 nM in each case. In addition, the EC50 – broadly, the midpoint of the concentration-response curve – is 3000 nM in data set [11] and 2000 nM in [7]. Besides, the inhibitory constant (Ki) stood at 1100 nM in data set [12]; 311 nM in [13]; 523 nM in [6]; 6200 nM in data set [8]; 2500 nM in data set [9]; 118 nM in data set [10]. Moreover, in the data set filed under Rattus norvegicus [14], the ED50 was found to be 57.8 µmol/kg.
Regarding `COc1cc(CCN)cc(OC)c1OC` [MESCALINE], the 50% inhibitory concentration (IC50) in the data set listed under Rattus norvegicus [1] and in the data set filed under Rattus norvegicus [3] was more than 10000 nM each time. In addition, the Ki is 551 nM in [2]; 795 nM in data set [6]; 6900 nM in [8]; 5500 nM in [9]; 303 nM in data set [10]. Moreover, the ED50 in the data set listed under Rattus norvegicus [4] worked out at 33.5 µmol/kg. For the same molecule, the EC50 is 4000 nM in data set [5] and 24000 nM in data set [7]. Besides, in data set [15], the lipophilicity (logP) (as a rule, a log measure of how a compound divides between an organic and an aqueous phase) was 3.15.
`COc1c2c(c(CCN)c3c1OCC3)CCO2`: the half-inhibitory concentration (IC50) in the data set filed under Rattus norvegicus [1] and in the data set filed under Rattus norvegicus [3] was more than 10000 nM each time. Further, the Ki in data set [2] amounted to 335 nM; in data set [16], 205 nM; in data set [12], 654 nM; in data set [17], 4440 nM; in [6] it was 301 nM; in [10] it was 61.5 nM. The EC50 in data set [5] came to 2000 nM; in [7], 1000 nM. In the data set listed under Rattus norvegicus [14], this molecule returned an ED50 of 55.2 µmol/kg.
